Data on 14 molecules can be found in patent US11098003B2, “Control and repellency of bed bugs” (BEDOUKIAN RESEARCH, INC., priority 2012, dated 2021).

The assay concerns bed bugs. Description: Petri dish choice test, treated vs. untreated paper discs: repellency (avoidance) of bed bugs. As to conditions: 1 ml acetone solution on paper disc, distribution at 2 hours post-treatment, 5 replicates of 10 bed bugs. In kind it is in vivo, Cimex species. Here is the method: Two semicircle discs of paper, one treated (1 ml of acetone solution of each compound was applied to each disc) and one untreated (1 ml of acetone only), were placed in the lid of a Petri dish. […] Five replicates of 10 bed bugs were released into the centers of the lids and were thus presented with a choice of treated vs. untreated substrate (or untreated vs. untreated in the control arenas). The distribution of the bed bugs was recorded at 2 hours post-treatment. Paired t-tests were conducted for each treatment to ascertain whether or not there was a statistically significant difference in the numbers of bed bugs on the treated vs. untreated discs.

Take `CCN(CC)C(=O)c1cccc(C)c1` [DEET, N,N-Diethyl-m-toluamide, reference compound]: the Repellency/Avoidance is, setting by setting: (0.09% compound) 66%; (0.2% compound) 74%.
As for `CCCCCC1C(=O)CCC1CC(=O)O` (stereo not shown) [Dihydrojasmonic Acid], where the note is “0.2% compound”, the Repellency/Avoidance came out at 78%.
The molecule `CCCCCC1C(O)CCC1CC(=O)OC` (stereo not shown) [Methyl dihydrojasmolate] had a Repellency/Avoidance (0.15% compound) of 58% and a Repellency/Avoidance (0.2% compound) of 82%.
Molecule `CCCCCC1C(CC(=O)OC)CCC1(OC)OC` (stereo not shown) [Methyl dihydrojasmonate dimethyl acetal] showed a Repellency/Avoidance (0.2% compound) of 90%.
In turn, `CC1CCC(C(C)(C)O)C(O)C1` (stereo not shown) [Para Menthane-3,8-diol (PMD), Para Menthane-3,8-diol, reference compound] returned a Repellency/Avoidance (0.15% compound) of 42% and a Repellency/Avoidance (0.2% compound) of 70%.
For `CCCCCC1C(O)CCC1CC(=O)OCC=C(C)C` (stereo not shown) [Prenyl dihydrojasmolate], the Repellency/Avoidance (0.2% compound) is 48%.
In the case of `CCCCCCCCCC1(C)CCC(=O)O1` (stereo not shown) [gamma Methyl tridecalactone], for the setting “0.2% compound”, the Repellency/Avoidance was found to be 72%.
The same measure, in the same setting: the value for `CCCCCCCCC1CCC(=O)O1` (stereo not shown) [gamma-Dodecalactone] was 82%.
Take `CCCCCCCCCCCCCC1CCC(=O)O1` (stereo not shown) [gamma-Heptadecalactone]: for the setting “2% compound”, the Repellency/Avoidance is 68%.
On to `CCCCCCCCCCCC1CCC(=O)O1` (stereo not shown) [gamma-Pentadecalactone], for which the Repellency/Avoidance (1% compound) is 92%.
As to `CCCCCCCCCC1CCC(=O)O1` (stereo not shown) [gamma-Tridecalactone], the Repellency/Avoidance was 86% (0.5% compound) and 96% (1% compound).
Under “0.2% compound”, Dihydrojasmolactone came in with a Repellency/Avoidance of 84%.
Regarding Methyl apritol, the Repellency/Avoidance (0.15% compound) worked out at 74% and the Repellency/Avoidance (0.2% compound) came to 88%.
Regarding Methyl dihydrojasmonate amide, under “concentration not given”, the Repellency/Avoidance is recorded as 28%.
